Reference: patent EP0540143B1, “Compounds and methods for inhibition of HIV and related viruses” (priority 1991, dated 1993)
Several values for one entry are separate records, joined by “and”; a condition that tells them apart may be missing. Identical values can stand only once.

Experiments:
HIV-2 = assay: Test F (HIV-2 RT), RT activity in supernatant of infected MT-4/H9 cells; type: cell-based; conditions: Human immunodeficiency virus 2, H9, Test F
Method: (§1) Tests E, F, G, H (HIV-IRT, HIV-2RT, SIVRT, no virus)
(§2) MT-4/H9-cells are adjusted to 2x10^5 cells/ml medium (RPMI 1640, 5% FCS, penicillin/streptomycin) and seeded into microplates (96 wells/plate) […] cell suspension/well giving 2 x 10^4 cells/well. The compound to be tested is made 10 mg/ml in DMSO = stock solution (stored at -20°C). The compound dissolved in DMSO is diluted 25 times in medium to give 400 mg/ml. Further dilutions to 40 mg/ml and 4 mg/ml are made in microplates.
(§3) 50 µl of the dilutions 400 mg/ml, 40 mg/ml and 4mg/ml are transferred to the "cell-containing" microplate with a multichannel pipette. […]
(§4) Finally 50 µl of virus suspension is added to each well (with a repetitive "Eppendorf multipett"). [Test E-HIV-1; Test F-HIV-2; Test G-SIV; Test H-no virus].
(§5) Each plate has at least four wells with virus but no drug (virus control) and two wells without virus (medium control). The plate is put into a plastic bag to avoid evaporation and incubated for six days in CO2-atmosphere. 10 µl supernatant from each well is transferred with a multichannel pipette into a new microplate to which 40 ml VDB, (50 mM Tris-HCl pH = 7.6, 35 mM KCl, 4 mM DTT, 1 mM EDTA, 1.3% Triton X-100), have been added to each well. The addition of 50 ml RT-reaction mix, (10 ml culture supernatant, 40 ml VDB and 50 ml reaction mixture giving a final concentration of: 100 mM Tris-HCl pH = 7.6, 100 mM KCl, 4 mM MgCl2, 4 mM DTT, 275 mg/ml BSA/ml, 5 mg (rA)n(dT)12-18/ml and 0.3 mM ^3H dTTP (specific activity 18.000 cpm/pmol)) gives a final volume of […]/well. After 60 minutes of incubation the whole assay volume is transferred by use of a cell harvester to a filter mat prewetted with 5% TCA. The filter is washed in 5% TCA and rinsed once in ethanol. After drying the filter mat at 60°C for 30 min. each filter (96/mat) is punched out and put into counting vials 2 ml of scintillation fluid is added and the samples are counted (1 min) or the whole filter mat is put into a plastic bag, 10 ml of scintillation fluid is added and the filter mat is counted in a Beckman Betaplate counter. Percent reduction of RT activity is determined by comparing RT activity for virus control with the RT activity measured for each dilution of the compound.

SIV = assay: Test G (SIV RT), RT activity in supernatant of infected MT-4/H9 cells; type: cell-based; conditions: Simian immunodeficiency virus
Method: as §1, §2
50 µl of the dilutions 400 mg/ml, 40 mg/ml and 4mg/ml are transferred to the "cell-containing" microplate with a multichannel pipette. (Final concentration: 100, 10 and 1 mg/ml).
as §4, §5

HIV(II) virus = assay: Test B (XTT), MT4 cells infected with HIV(II); type: cell-based; conditions: Human immunodeficiency virus 1, MT4, Test B
Method: (§6) Tests A, B, C, and D (XTT)
(§7) MT4 cells in a medium of RPMI 1640, 5% FCS, penicillin/streptomycin are adjusted to 2x10^5 cells/ml and seeded into microplates (96 wells/plate) 100 µl cell suspension/well giving 2x10^4 cells/well. The compound to be tested is made into a 10 mg/ml mixture in DMSO and stored at -20°C. The compound in DMSO is diluted with medium containing 10% DMSO in a 10-fold dilution series to give 1 mg/ml, 10 mg/ml, and […] solutions. Further dilutions to 400, 40, 4 and 0.4 mg/ml are made in medium containing microplates. Fifty µl of the 400, 40, and 4 mg/ml are transferred to the cell-containing microplates with a multi-channel pipette (final concentration: 100, 10, and 1 mg/ml). Finally, 50 µl of virus suspension is added to each well (with a repetitive "Eppendorf" multipipett). Each plate has at least six wells with the following: [Test A: HIV virus; Test B: HIV(II) virus; Test C: SIV virus; Test D: No virus]; with no drug (virus control) and six wells without virus (medium control). The plate is put into a plastic bag and incubated for six days in CO2 atmosphere. To each well in the plate is added 50 µl of XTT ((2,3-bis[2-methoxy-4-nitro-5-sulfophenyl]-5-[(phenylamino)carbonyl]-2H-tetrazolium hydroxide), (1 mg/ml 0.01-0.02 mM N-metyl-phenazonium methosulfate). After six hours of incubation in CO2 atmosphere the plates are covered with adhesive plate sealers and gently mixed on a vortex. Optical densities are determined at a wavelength of 450 nm and a reference wavelength of 650 nm. The percent reduction of cytotoxocity caused by the virus infection is calculated as follows: (OD450 compound - OD450 inf cells)/(OD450 uninf cells - OD450 inf cells)x 100 [formula]

recombinant HIV-RT = recombinant HIV-RT (Human immunodeficiency virus type 1 group M subtype B, UniProt P04585); assay: Test I (HIVRT (rAdt)), direct inhibition of recombinant HIV-RT; type: biochemical
Method: The compounds were tested for direct inhibitory activity on HIV-RT in a volume of […] recombinant HIV-RT (diluted in virus disruption buffer to give 200.000 cpm).
100 mM Tris-HCl pH 7.6, 100 mM KCl, 4 mM MgCl2, 4 mM DTT, 275 mg/ml BSA, 0.5 mg (rA)n(dT)12-18 and 0.3 mM ^3H- dTTP (specific activity […]). After 60 minutess of incubation 40 ml in duplicate were spotted on paper discs and washed in 5% TCA. After rinsing the paper discs in ethanol they were dried and counted in scintillation fluid.

HIV-1 [1] = assay: Test E (HIV-1 RT), RT activity in supernatant of infected MT-4/H9 cells; type: cell-based; conditions: Human immunodeficiency virus 1, H9, Test E
Method: as §1, §2, §3, §4, §5

HIV virus = assay: Test A (XTT), MT4 cells infected with HIV; type: cell-based; conditions: for inhibition at 1 µg/mL / inhibition at 10 µg/mL / inhibition at 100 µg/mL: Human immunodeficiency virus 1, MT4, Test A; for % inhibition: Test A
Method: as §6, §7

SIV virus = assay: Test C (XTT), MT4 cells infected with SIV; type: cell-based; conditions: Simian immunodeficiency virus, MT4, Test C
Method: as §6, §7

MT4 cells = assay: Test D (XTT), MT4 cells, no virus; type: cell-based; conditions: Homo sapiens
Method: as §6, §7

HIV-1 [2] = assay: combination with AZT against HIV-1 in CEM cells, technique of Prichard and Shipman; type: cell-based; conditions: combination of AZT and the compound
Method: The combination was evaluated against HIV-1 in CEM cells using the technique of Prichard and Shipman (Antiviral Research, 14, 181-206 (1990)).

[3] = titration pKa (66% DMF/H2O)
physchem = conditions: 66% dmf/h2o

| SMILES | inhibition at 1 µg/mL (HIV-2) [%] | inhibition at 10 µg/mL (HIV-2) [%] | inhibition at 100 µg/mL (HIV-2) [%] | inhibition at 0.1 µg/mL (HIV(II) virus) [%] | inhibition at 1 µg/mL (HIV(II) virus) [%] | inhibition at 10 µg/mL (HIV(II) virus) [%] | inhibition at 100 µg/mL (HIV(II) virus) [%] | inhibition at 0.1 µg/mL (recombinant HIV-RT) [%] | inhibition at 1 µg/mL (recombinant HIV-RT) [%] | inhibition at 10 µg/mL (recombinant HIV-RT) [%] | inhibition at 1 µg/mL (HIV-1 [1]) [%] | inhibition at 10 µg/mL (HIV-1 [1]) [%] | inhibition at 100 µg/mL (HIV-1 [1]) [%] | inhibition at 1 µg/mL (SIV virus) [%] | inhibition at 10 µg/mL (SIV virus) [%] | inhibition at 100 µg/mL (SIV virus) [%] | further results |
| --- | --- | --- | --- | --- | --- | --- | --- | --- | --- | --- | --- | --- | --- | --- | --- | --- | --- |
| S=C(NCCc1ccccc1)Nc1nc2c(Cl)cccc2s1 | 6 | 72 | 93 | 18 | 22 | 100 | 36 | 9 | 6 | 1 | 11 | 8 | 97 | 0 | 2 | 17 | inhibition at 0.1 µg/mL (HIV-2): 1%; inhibition at 1 µg/mL (SIV): 1%; inhibition at 10 µg/mL (SIV): 1%; inhibition at 100 µg/mL (SIV): 87%; inhibition at 1 µg/mL (HIV virus): 4%; inhibition at 10 µg/mL (HIV virus; 10 µg/ml): 19%; inhibition at 100 µg/mL (HIV virus; 100 µg/ml): 100% |
| S=C(NCCc1ccccc1)Nc1nc2ccc(Cl)cc2s1 | 1 | 79 | 98 | 24 | 9 | 67 | 27 | 12 | 18 | 18 | 1 | 51 | 96 | 0 | 0 | 21 | inhibition at 1 µg/mL (SIV): 1%; inhibition at 10 µg/mL (SIV): 12%; inhibition at 100 µg/mL (SIV): 90%; inhibition at 1 µg/mL (HIV virus): 0%; inhibition at 10 µg/mL (HIV virus; 10 µg/ml): 63%; inhibition at 100 µg/mL (HIV virus; 100 µg/ml): 68%; % inhibition (HIV virus; 10 µg/ml): 67%; % inhibition (HIV virus; 100 µg/ml): 49% |
| Fc1ccc2nc(NC(=S)NCCc3ccccc3)sc2c1 | 77 | 62 | 97 | 4 | 40 | 12 | 93 | 33 | 38 | 39 | 51 | 16 | 95 | 2 | 5 | 19 | inhibition at 0.1 µg/mL (HIV-2): 4%; inhibition at 0.1 µg/mL (HIV-1 [1]; 0.1 µg/ml): 1%; % inhibition (HIV virus; 100 µg/ml): 100% and 72%; inhibition at 1 µg/mL (MT4 cells; 1 µg/ml): 5%; inhibition at 10 µg/mL (MT4 cells; 10 µg/ml): 28%; inhibition at 100 µg/mL (MT4 cells; 100 µg/ml): 0% |
| Cc1cn([C@H]2C[C@H](N=[N+]=[N-])[C@@H](CO)O2)c(=O)[nH]c1=O [AZT, reference compound] | – | – | – | – | – | – | – | – | – | – | – | – | – | – | – | – | concentration at the peak of synergy (HIV-1 [2]): 0.005 µg/mL |
| NCCc1c(F)cccc1F [Example 312, 2-(2,6-Difluorophenyl)ethylamine] | – | – | – | – | – | – | – | – | – | – | – | – | – | – | – | – | pKa [3]: 9.06 |
| S=C(NCCC1=CCCCC1)Nc1ccc(Cl)nn1 [Example 336, N-[2-(1-cyclohexenyl)ethyl]-N'-[3-(6-chloro)pyridazinyl]thiourea] | – | – | – | – | – | – | – | – | – | – | – | – | – | – | – | – | pKa ([3]; pKa, 66% DMF): 12.8 |
| Fc1cccc(F)c1CCNC(=S)Nc1ccc(Cl)nn1 [Example 337, N-[2-(2,6-difluorophenyl)ethyl]-N'-[3-(6-chloro)pyridazinyl] thiourea] | – | – | – | – | – | – | – | – | – | – | – | – | – | – | – | – | pKa ([3]; pKa, 66% DMF): 12.7 |
| NCCc1ncccc1F [Example 417, 2-aminoethyl-3-fluoropyridine] | – | – | – | – | – | – | – | – | – | – | – | – | – | – | – | – | pKa (physchem): 9.56 |
| S=C(NCCc1ccccc1)Nc1nccs1 [drawing 35] | – | – | – | – | – | – | – | – | – | – | – | – | – | – | – | – | concentration at the peak of synergy (HIV-1 [2]): 0.5 µg/mL; effect of the combination (HIV-1 [2]): synergistic effect |
